# Source: PMC8443589, “Modelling human liver fibrosis in the context of non-alcoholic steatohepatitis using a microphysiological system” (Communications Biology, 2021)
# Test system: liver MPS NASH model (PHH, KC and HSC co-cultures)
# Assay: Cue study: secreted cytokines and chemokines (Luminex) with varying NPC number and added cues (Fig 5a, 5b)
# Format: cell-based, human
# Conditions: Fat media + cue
# Description: There is only limited understanding of the pathogenic drivers of NASH and their interaction, principally due to a lack of translational models that are amenable to detailed molecular analysis[2],[34]. Here, a systems biology ‘cue-signal-analysis’ paradigm[35],[36] was utilised to produce large factorial datasets to enable the identification of molecular pathways of importance. […] To create varying set ups of the NASH microtissues we created hepatocyte microtissues in the MPS with high numbers of NPC (60,000 KC and HSC—equivalent to 10% of microtissue population) and low numbers of NPCs (6000 KC and HSC—equivalent to 1% of microtissue), representing physiological and non-physiological cell ratios respectively. Next, we took these different microtissues and cultured them in media with or without FFA. Finally, we supplemented the media with lipopolysaccharide (LPS), TGFβ, fructose or cholesterol either as single ‘cues’, in pairs or all together (Fig. 4a). ‘Cues’ were selected for clinical association with NASH. LPS, is a pleiotropic inflammatory molecule, it is proposed to reach the liver via the hepatic portal vein after release from the gastrointestinal tract, contributing to disease progression[37],[38]. TGFβ has been extensively studied in relation to fibrosis due to its regulation of genes controlling collagen and matrix-modifying enzymes. Fructose is a key substrate for de-novo lipogenesis, a process that has been identified as a key event in lipid accumulation within NAFLD patients. Finally, cholesterol accumulation has also been linked to NASH disease aetiology.
# Assessment of gene expression changes was supplemented by assessment of the secretome produced by NASH microtissues in the MPS after exposure to the various cues. Increased pro-inflammatory cytokine secretion is a defining characteristic in NASH patients, so we conducted a Luminex cytokine array covering 42 different biomarkers, cytokines and chemokines secreted into the culture media of the different microtissues at multiple time points. […]
substance,measurement,setting,value
TGF-β,EGF relative expression (z-transformation),Day 6,-0.6947
same,Eotaxin relative expression (z-transformation),Day 6,-0.9288
same,FGF-2 relative expression (z-transformation),Day 6,0.0308
same,Fit-3L relative expression (z-transformation),Day 6,-0.07468
same,Fractalkine relative expression (z-transformation),Day 6,-0.6368
same,G-CSF relative expression (z-transformation),Day 6,0.1243
same,GRO relative expression (z-transformation),Day 6,-0.2928
same,IFN-a2 relative expression (z-transformation),Day 6,0.07826
same,IL-1RA relative expression (z-transformation),Day 6,-0.2716
same,IL-4 relative expression (z-transformation),Day 6,-0.7382
same,IL-6 relative expression (z-transformation),Day 6,0.4237
same,IL-7 relative expression (z-transformation),Day 6,-0.09812
same,IL-8 relative expression (z-transformation),Day 6,0.2731
same,IL-15 relative expression (z-transformation),Day 6,0.3864
same,IP-10 relative expression (z-transformation),Day 6,-0.5991
same,MCP-1 relative expression (z-transformation),Day 6,-0.1254
same,MCP-3 relative expression (z-transformation),Day 6,-0.3354
same,MDC relative expression (z-transformation),Day 6,1.089
same,MIP-1a relative expression (z-transformation),Day 6,-0.3189
same,MIP-1b relative expression (z-transformation),Day 6,-0.5904
same,TNFa relative expression (z-transformation),Day 6,-0.3323
same,VEGF relative expression (z-transformation),Day 6,0.1644
same,EGF relative expression (z-transformation),Day 11,0.4971
same,Eotaxin relative expression (z-transformation),Day 11,-0.7902
same,FGF-2 relative expression (z-transformation),Day 11,1.282
same,Fit-3L relative expression (z-transformation),Day 11,-1.046
same,Fractalkine relative expression (z-transformation),Day 11,0.2445
same,G-CSF relative expression (z-transformation),Day 11,1.379
same,GM-CSF relative expression (z-transformation),Day 11,-0.7569
same,GRO relative expression (z-transformation),Day 11,-0.05931
same,IFN-a2 relative expression (z-transformation),Day 11,-0.7423
same,IL-1RA relative expression (z-transformation),Day 11,1.044
same,IL-4 relative expression (z-transformation),Day 11,2.047
same,IL-6 relative expression (z-transformation),Day 11,-0.4878
same,IL-7 relative expression (z-transformation),Day 11,0.613
same,IL-8 relative expression (z-transformation),Day 11,1.674
same,IL-15 relative expression (z-transformation),Day 11,1.1283
same,IP-10 relative expression (z-transformation),Day 11,-0.5014
same,MCP-1 relative expression (z-transformation),Day 11,-0.1617
same,MCP-3 relative expression (z-transformation),Day 11,1.036
same,MDC relative expression (z-transformation),Day 11,-0.8939
same,MIP-1a relative expression (z-transformation),Day 11,-0.2467
same,MIP-1b relative expression (z-transformation),Day 11,-0.2666
same,TNFa relative expression (z-transformation),Day 11,-0.5851
same,VEGF relative expression (z-transformation),Day 11,0.04572
same,EGF relative expression (z-transformation),Day 14,-0.7709
same,Eotaxin relative expression (z-transformation),Day 14,-0.8142
same,FGF-2 relative expression (z-transformation),Day 14,-0.6405
same,Fit-3L relative expression (z-transformation),Day 14,-1.202
same,Fractalkine relative expression (z-transformation),Day 14,-0.4453
same,G-CSF relative expression (z-transformation),Day 14,2.694
same,GM-CSF relative expression (z-transformation),Day 14,-0.9022
same,GRO relative expression (z-transformation),Day 14,-0.07849
same,IFN-a2 relative expression (z-transformation),Day 14,0.3354
same,IL-1RA relative expression (z-transformation),Day 14,0.4791
same,IL-4 relative expression (z-transformation),Day 14,0.3542
same,IL-6 relative expression (z-transformation),Day 14,-0.7405
same,IL-7 relative expression (z-transformation),Day 14,-0.2291
same,IL-8 relative expression (z-transformation),Day 14,1.963
same,IL-15 relative expression (z-transformation),Day 14,1.049
same,IP-10 relative expression (z-transformation),Day 14,-0.2731
same,MCP-1 relative expression (z-transformation),Day 14,-0.3727
same,MCP-3 relative expression (z-transformation),Day 14,1.8775
same,MDC relative expression (z-transformation),Day 14,-0.4908
same,MIP-1a relative expression (z-transformation),Day 14,-0.1191
same,MIP-1b relative expression (z-transformation),Day 14,-0.282
same,TNFa relative expression (z-transformation),Day 14,-0.5429
same,VEGF relative expression (z-transformation),Day 14,-0.6644
